Measured values published in patent US20240293551A1, “USE OF ST-TYPE LIPID COMPOUNDS IN PREPARATION OF NUCLEIC ACID DELIVERY REAGENT AND RELATED PRODUCT” (INSTITUTE OF BASIC MEDICAL SCIENCES CHINESE ACADEMY OF …, priority 2021, published 2024).

Test system: PGY-sRNA-26
Assay: In vivo delivery study of lipid-nucleic acid mixture (oral gavage, RT-qPCR of PGY-sRNA-26 in tissues)
Set-up: species or system mouse
Details: C57BL/6 mice, gavage, 100 μg lipid: 10 nmol PGY-sRNA-26, 12 hours; for delivery efficacy over each tissue and blood tested (broad-spectrum delivery): all tissues and blood tested; for oral delivery of single-stranded sRNA nucleic acids into mouse intestinal tissue: intestine
Outline: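 C57BL/6 male mice (~6 weeks, 20-24 g), fasted 12 h, were gavaged with 10 nmol 3′-methylated PGY-sRNA-26 mixed with 100 μg lipid (heated 90° C. 15 min), versus saline or free sRNA (n=4 each). After 12 h, blood and tissues were Trizol-extracted; sRNA quantified by stem-loop RT-qPCR relative to U6.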

C[C@]1(O)CC[C@H]2[C@@H]3CCC4=CC(=O)CC[C@]4(C)[C@@]3(F)[C@@H](O)C[C@@]21C [Lipid 532]
delivery efficacy over each tissue and blood tested (broad-spectrum delivery): exhibited the best delivery efficacy
oral delivery of single-stranded sRNA nucleic acids into mouse blood: can effectively orally deliver
oral delivery of single-stranded sRNA nucleic acids into mouse femur: can effectively orally deliver
oral delivery of single-stranded sRNA nucleic acids into mouse heart tissue: can effectively orally deliver
oral delivery of single-stranded sRNA nucleic acids into mouse intestinal tissue: can effectively orally deliver
oral delivery of single-stranded sRNA nucleic acids into mouse kidney tissue: can effectively orally deliver
oral delivery of single-stranded sRNA nucleic acids into mouse liver tissue: can effectively orally deliver
oral delivery of single-stranded sRNA nucleic acids into mouse lung tissue: can effectively orally deliver
oral delivery of single-stranded sRNA nucleic acids into mouse spleen tissue: can effectively orally deliver
oral delivery of single-stranded sRNA nucleic acids into mouse stomach tissue: can effectively orally deliver

C[C@]12CC[C@@H]3c4ccc(O)cc4CC[C@H]3[C@@H]1C[C@@H](O)[C@@H]2O [Lipid 633]
delivery efficacy over each tissue and blood tested (broad-spectrum delivery): exhibited the best delivery efficacy
oral delivery of single-stranded sRNA nucleic acids into mouse blood: can effectively orally deliver
oral delivery of single-stranded sRNA nucleic acids into mouse brain tissue: can effectively orally deliver
oral delivery of single-stranded sRNA nucleic acids into mouse femur: can effectively orally deliver
oral delivery of single-stranded sRNA nucleic acids into mouse heart tissue: can effectively orally deliver
oral delivery of single-stranded sRNA nucleic acids into mouse intestinal tissue: can effectively orally deliver
oral delivery of single-stranded sRNA nucleic acids into mouse kidney tissue: can effectively orally deliver
oral delivery of single-stranded sRNA nucleic acids into mouse liver tissue: can effectively orally deliver
oral delivery of single-stranded sRNA nucleic acids into mouse lung tissue: can effectively orally deliver
oral delivery of single-stranded sRNA nucleic acids into mouse spleen tissue: can effectively orally deliver
oral delivery of single-stranded sRNA nucleic acids into mouse stomach tissue: can effectively orally deliver

CC(C)[C@H](C)[C@@H](O)[C@H](O)[C@@H](C)[C@H]1CC[C@H]2[C@@H]3COC(=O)[C@H]4C[C@H](O)[C@H](O)C[C@]4(C)[C@H]3CC[C@]12C [Lipid 508]
delivery efficacy over each tissue and blood tested (broad-spectrum delivery): exhibited the best delivery efficacy
oral delivery of single-stranded sRNA nucleic acids into mouse blood: can effectively orally deliver
oral delivery of single-stranded sRNA nucleic acids into mouse brain tissue: can effectively orally deliver
oral delivery of single-stranded sRNA nucleic acids into mouse heart tissue: can effectively orally deliver
oral delivery of single-stranded sRNA nucleic acids into mouse intestinal tissue: can effectively orally deliver
oral delivery of single-stranded sRNA nucleic acids into mouse kidney tissue: can effectively orally deliver
oral delivery of single-stranded sRNA nucleic acids into mouse liver tissue: can effectively orally deliver
oral delivery of single-stranded sRNA nucleic acids into mouse lung tissue: can effectively orally deliver
oral delivery of single-stranded sRNA nucleic acids into mouse spleen tissue: can effectively orally deliver
oral delivery of single-stranded sRNA nucleic acids into mouse stomach tissue: can effectively orally deliver

CCCCC(=O)O[C@H]1CC[C@H]2[C@@H]3CCc4cc(O)ccc4[C@H]3CC[C@]12C [Lipid 556]
delivery efficacy over each tissue and blood tested (broad-spectrum delivery): exhibited the best delivery efficacy
oral delivery of single-stranded sRNA nucleic acids into mouse blood: can effectively orally deliver
oral delivery of single-stranded sRNA nucleic acids into mouse brain tissue: can effectively orally deliver
oral delivery of single-stranded sRNA nucleic acids into mouse femur: can effectively orally deliver
oral delivery of single-stranded sRNA nucleic acids into mouse heart tissue: can effectively orally deliver
oral delivery of single-stranded sRNA nucleic acids into mouse intestinal tissue: can effectively orally deliver
oral delivery of single-stranded sRNA nucleic acids into mouse kidney tissue: can effectively orally deliver
oral delivery of single-stranded sRNA nucleic acids into mouse liver tissue: can effectively orally deliver
oral delivery of single-stranded sRNA nucleic acids into mouse lung tissue: can effectively orally deliver
oral delivery of single-stranded sRNA nucleic acids into mouse spleen tissue: can effectively orally deliver
oral delivery of single-stranded sRNA nucleic acids into mouse stomach tissue: can effectively orally deliver

C[C@H](CCC(=O)NCC(=O)O)[C@H]1CC[C@H]2[C@@H]3CC[C@@H]4C[C@H](O)CC[C@]4(C)[C@H]3C[C@H](O)[C@]12C [Lipid 552]
delivery efficacy over each tissue and blood tested (broad-spectrum delivery): exhibited the best delivery efficacy
oral delivery of single-stranded sRNA nucleic acids into mouse blood: can effectively orally deliver
oral delivery of single-stranded sRNA nucleic acids into mouse brain tissue: can effectively orally deliver
oral delivery of single-stranded sRNA nucleic acids into mouse femur: can effectively orally deliver
oral delivery of single-stranded sRNA nucleic acids into mouse heart tissue: can effectively orally deliver
oral delivery of single-stranded sRNA nucleic acids into mouse intestinal tissue: can effectively orally deliver
oral delivery of single-stranded sRNA nucleic acids into mouse kidney tissue: can effectively orally deliver
oral delivery of single-stranded sRNA nucleic acids into mouse liver tissue: can effectively orally deliver
oral delivery of single-stranded sRNA nucleic acids into mouse lung tissue: can effectively orally deliver
oral delivery of single-stranded sRNA nucleic acids into mouse spleen tissue: can effectively orally deliver
oral delivery of single-stranded sRNA nucleic acids into mouse stomach tissue: can effectively orally deliver

C[C@@H]1O[C@@H](O[C@H]2C[C@@H](O)[C@]3(CO)[C@H]4[C@H](O)C[C@]5(C)[C@@H](C6=CC(=O)OC6)CC[C@]5(O)[C@@H]4CC[C@]3(O)C2)[C@H](O)[C@H](O)[C@H]1O [Lipid 550]
delivery efficacy over each tissue and blood tested (broad-spectrum delivery): exhibited the best delivery efficacy
oral delivery of single-stranded sRNA nucleic acids into mouse blood: can effectively orally deliver
oral delivery of single-stranded sRNA nucleic acids into mouse brain tissue: can effectively orally deliver
oral delivery of single-stranded sRNA nucleic acids into mouse femur: can effectively orally deliver
oral delivery of single-stranded sRNA nucleic acids into mouse heart tissue: can effectively orally deliver
oral delivery of single-stranded sRNA nucleic acids into mouse intestinal tissue: can effectively orally deliver
oral delivery of single-stranded sRNA nucleic acids into mouse kidney tissue: can effectively orally deliver
oral delivery of single-stranded sRNA nucleic acids into mouse liver tissue: can effectively orally deliver
oral delivery of single-stranded sRNA nucleic acids into mouse lung tissue: can effectively orally deliver
oral delivery of single-stranded sRNA nucleic acids into mouse spleen tissue: can effectively orally deliver
oral delivery of single-stranded sRNA nucleic acids into mouse stomach tissue: can effectively orally deliver

C=C1/C(=C\C=C2/CCC[C@]3(C)[C@@H]([C@H](C)OCCC(C)(C)O)CC[C@@H]23)C[C@@H](O)C[C@@H]1O [Lipid 540]
delivery efficacy over each tissue and blood tested (broad-spectrum delivery): exhibited the best delivery efficacy
oral delivery of single-stranded sRNA nucleic acids into mouse blood: can effectively orally deliver
oral delivery of single-stranded sRNA nucleic acids into mouse brain tissue: can effectively orally deliver
oral delivery of single-stranded sRNA nucleic acids into mouse femur: can effectively orally deliver
oral delivery of single-stranded sRNA nucleic acids into mouse heart tissue: can effectively orally deliver
oral delivery of single-stranded sRNA nucleic acids into mouse intestinal tissue: can effectively orally deliver
oral delivery of single-stranded sRNA nucleic acids into mouse kidney tissue: can effectively orally deliver
oral delivery of single-stranded sRNA nucleic acids into mouse liver tissue: can effectively orally deliver
oral delivery of single-stranded sRNA nucleic acids into mouse lung tissue: can effectively orally deliver
oral delivery of single-stranded sRNA nucleic acids into mouse spleen tissue: can effectively orally deliver
oral delivery of single-stranded sRNA nucleic acids into mouse stomach tissue: can effectively orally deliver

C#C[C@]1(O)CC[C@H]2[C@@H]3CCc4cc(O)ccc4[C@H]3CC[C@@]21C [Lipid 591]
oral delivery of single-stranded sRNA nucleic acids into mouse brain tissue: can effectively orally deliver
oral delivery of single-stranded sRNA nucleic acids into mouse femur: can effectively orally deliver
oral delivery of single-stranded sRNA nucleic acids into mouse heart tissue: can effectively orally deliver
oral delivery of single-stranded sRNA nucleic acids into mouse intestinal tissue: can effectively orally deliver
oral delivery of single-stranded sRNA nucleic acids into mouse kidney tissue: can effectively orally deliver
oral delivery of single-stranded sRNA nucleic acids into mouse lung tissue: can effectively orally deliver
oral delivery of single-stranded sRNA nucleic acids into mouse spleen tissue: can effectively orally deliver
oral delivery of single-stranded sRNA nucleic acids into mouse stomach tissue: can effectively orally deliver
